Reference: BigSolDB 2.1

COc1ccc2[nH]cc(CCNC(C)=O)c2c1
solubility (mole fraction)
Details	278.15 K	283.15 K	288.15 K	293.15 K	298.15 K	303.15 K	308.15 K	313.15 K	318.15 K	323.15 K
in 2-ethoxyethanol	0.0643	0.0729	0.0809	0.0919	0.103	0.113	0.126	0.138	0.152	0.168
in 2-methoxyethanol	0.0729	0.0819	0.0921	0.103	0.115	0.129	0.142	0.159	0.173	0.191
in DMF	0.177	0.191	0.205	0.221	0.235	0.251	0.267	0.285	0.302	0.321
